# Biological target: T1, human isoform of the Kv1.5 channels (HEK293 cells, stably transfected) (Homo sapiens, UniProt P22460)
# T1 construct: expressed in transfected cells; host or cells: HEK293
# Test: FLIPR thallium ion flux assay on Kv1.5 potassium channel (FLIPR Potassium Ion Channel Assay Kit)
# Format: cell-based
# Conditions: 10 μM compound, 15 min at 37° C; HEK293-hKv1.5; thallium fluorescence 30 secs after depolarising solution; normalised with 10 μM DPO
# Protocol: The pharmacological assessment of the compounds on the Kv1.5 potassium channel was performed in a 96-well plate in FLIPR technology by thallium ion measurement.
# The HEK293 cells, stably transfected with the human isoform of the Kv1.5 channels, are seeded 24 h before experimentation in 96-well plates (15 10^6 cells/plate, 200 μl/well) polylysinated in the following culture medium: DMEM, 10% SVF, Penicillin/Streptomycin, G418 as the selection antibiotic.
# The experimentation in FLIPR is performed using the “FLIPR Potassium Ion Channel Assay Kit) as indicated by the manufacturer (Molecular Devices).
# Briefly, the culture medium is replaced by the solution containing the thallium marker for 90 min at 37° C. Following this step, the compounds to be tested are added to a final concentration of 10 μM in the well for 15 min at 37° C. The basic fluorescence is subsequently read for 60 secs. The addition of a depolarising medium (20 mM of potassium and 3 mM of final thallium), opens the potassium channels and induces an increase in the fluorescence of the fluorophore thallium corresponding to an influx of thallium ions through the hKv1.5 channels. The measurement is performed 30 secs after injection of the depolarising solution. Application of 10 μM of DPO (Tocris, Kv1.5 channel blocker) allows normalisation of the fluorescence.
# T1 sequence (P22460 whole entry, canonical isoform): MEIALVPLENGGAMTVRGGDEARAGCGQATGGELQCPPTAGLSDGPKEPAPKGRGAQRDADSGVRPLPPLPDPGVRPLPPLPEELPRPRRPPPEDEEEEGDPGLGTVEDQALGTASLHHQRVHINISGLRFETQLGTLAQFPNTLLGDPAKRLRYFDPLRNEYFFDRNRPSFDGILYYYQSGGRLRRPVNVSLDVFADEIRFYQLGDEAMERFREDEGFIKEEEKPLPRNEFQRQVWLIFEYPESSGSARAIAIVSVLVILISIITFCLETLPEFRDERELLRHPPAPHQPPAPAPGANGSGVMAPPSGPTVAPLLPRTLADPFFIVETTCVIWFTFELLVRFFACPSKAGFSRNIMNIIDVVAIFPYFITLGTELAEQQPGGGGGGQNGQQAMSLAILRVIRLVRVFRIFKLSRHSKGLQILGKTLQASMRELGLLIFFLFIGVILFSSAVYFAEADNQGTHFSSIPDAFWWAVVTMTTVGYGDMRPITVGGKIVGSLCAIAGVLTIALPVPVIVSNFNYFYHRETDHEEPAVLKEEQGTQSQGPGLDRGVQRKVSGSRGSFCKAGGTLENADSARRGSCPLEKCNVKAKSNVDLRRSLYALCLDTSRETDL
row,Structure (SMILES),inhibition at 10 µM [%]
1,"CC(c1ccccc1)n1ncc(-c2ccc(O)cc2)c(-c2ccc(O)cc2)c1=O (stereo not shown) [Example 1, 4,5-Bis-(4-hydroxy-phenyl)-2-(1-phenyl-ethyl)-2H-pyridazin-3-one]",100
2,"CC1=C(C(=O)N2CCC[C@H]2c2ccc(F)cc2)[C@@H](c2ccc(Cl)c(Cl)c2)n2nccc2N1 [BMS394136, reference compound]",99.6
3,"CC(c1ccccc1)n1ncc(-c2cccc(C#N)c2)c(-c2cccc(C#N)c2)c1=O (stereo not shown) [Example 5, 3,3′-(6-oxo-1-(1-phenylethyl)-1,6-dihydropyridazine-4,5-diyl) dibenzonitrile]",93.6
4,"C[C@H](c1ccccc1)n1ncc(-c2ccc(O)cc2)c(-c2ccc(O)cc2)c1=O [Example 3, 4,5-Bis-(4-hydroxy-phenyl)-2-((R)-1-phenyl-ethyl)-2H-pyridazin-3-one]",43.3
5,"Cc1ccc(S(=O)(=O)Nc2cccc(-c3cnn(C(C)c4ccccc4)c(=O)c3-c3cccc(NS(=O)(=O)c4ccc(C)cc4)c3)c2)cc1 (stereo not shown) [Example 7, N,N′-(3,3′-(6-oxo-1-(1-phenylethyl)-1,6-dihydropyridazine-4,5-diyl)bis(3,1-phenylene))bis(4-methylbenzenesulfonamide)]",54.9
6,"C[C@@H](c1ccccc1)n1ncc(-c2ccc(O)cc2)c(-c2ccc(O)cc2)c1=O [Example 2, 4,5-Bis-(4-hydroxy-phenyl)-2-((S)-1-phenyl-ethyl)-2H-pyridazin-3-one]",100

# Now from value to molecule:
row,inhibition at 10 µM [%],Structure (SMILES)
1,94.2,"COc1ccc(-c2cnn(C(C)c3ccccc3)c(=O)c2-c2ccc(OC)cc2)cc1 (stereo not shown) [Example 6, 4,5-Bis-(4-methoxy-phenyl)-2-(1-phenyl-ethyl)-2H-pyridazin-3-one]"
2,60.1,"COc1ccc(-c2c(-c3ccccc3C#N)cnn(C(C)c3ccccc3)c2=O)cc1 (stereo not shown) [Example 9, 2-[5-(4-Methoxy-phenyl)-6-oxo-1-(1-phenyl-ethyl)-1,6-dihydro-pyridazin-4-yl]-benzonitrile]"
3,54.9,"CC(c1ccccc1)n1ncc(-c2ccccc2C#N)c(-c2ccccc2C#N)c1=O (stereo not shown) [Example 4, 2,2′-(6-oxo-1-(1-phenylethyl)-1,6-dihydropyridazine-4,5-diyl)dibenzonitrile]"
4,88,"COc1ccc(-c2c(-c3cccc(C#N)c3)cnn(C(C)c3ccccc3)c2=O)cc1 (stereo not shown) [Example 8, 3-(5-(4-methoxyphenyl)-6-oxo-1-(1-phenylethyl)-1,6-dihydropyridazin-4-yl)benzonitrile]"
